Results published in US20170165240A1, “NEW STRATEGIES FOR TREATING MELANOMA” (Université Libre de Bruxelles, priority 2014, published 2017).
“Also recorded” adds a separate entry of the source. Read-outs that look alike come from different tables or passages of the source. Values belong to the compound of their own block, whether it stands above or below them.

Tests used:
MM074 melanoma cell line [1] = assay: Cell proliferation, crystal violet assay, MM074; conditions: for IC10: 10% growth reduction
[2] = test system: MM074-R melanoma cell line; conditions: 10% growth reduction
MM043 melanoma cell line [3] = assay: Cell proliferation, crystal violet assay, MM043; conditions: for IC10 / CI (combination index): MM043; for IC10: 10% growth reduction; for CI (combination index): PI3K inhibitor at IC10 in combination with vemurafenib
[4] = test system: key proteins of MAPK and p53/PI3K/AKT pathways; assay: Western blot analysis, MM043 cells; type: cell-based, human; conditions: MM043, Western blotting
Experimental: (§1) Cells were plated in Petri dishes (3×10^6 cells/dish) in culture medium. […] Then, cells were exposed or not to effectors for 30 minutes or 24 hours. Cells were lysed using a detergent cocktail (M-PER Mammalian Extraction Buffer) supplemented with protease inhibitors (Halt Protease Inhibitor Cocktail) and phosphatase inhibitors (Halt Phosphatase Inhibitor Cocktail) (all from Pierce, Rockford, Ill., USA). Protein concentrations were determined by the BCA Protein Assay (Pierce) using bovine serum albumin as the standard. Equal amounts of extracted proteins (35 μg) were subjected to 10 or 12% SDS-PAGE and electrotransferred onto nitrocellulose membranes using iBlot® Dry Blotting System (Invitrogen, Life Technologies, Gent, Belgium). Immunodetections were performed using antibodies raised against ^V600EBRAF (VE1, 1/1000) (from Spring Bioscience, Pleasanton, Calif., USA), pBRAF (Ser 445) (1/1000), pCRAF (Ser 338) (1/1000), CRAF (1/1000), p110α (C73F8, 1/1000), PTEN (138G6, 1/1000), pAKT (Ser 473) (D9E, 1/500), AKT (40D4, 1/1000), p21 (12D1, 1/1000) and p53 Ser15 (16G8) (all from Cell Signaling Technology, Danvers, Mass., USA), BRAF (F-7, 1/200), pERK (Tyr 204) (E-4, 1/1000), ERK2 (C-14, 1/2000), p53 (DO-1, 1/200) and MDM2 (SMP14, 1/200) (all from Santa Cruz Biotechnology, Santa Cruz, Calif., USA), and MDM4 (8C6, 1/1000), […]-actin (C4, 1/5000) (from Millipore, Temecula, Calif., USA). Peroxidase-labeled anti-rabbit IgG antibody (1/5000) or peroxidase-labeled anti-mouse IgG antibody (1/5000) (both from Amersham Pharmacia Biotech, Roosendaal, The Netherlands) were used as secondary reagents to detect corresponding primary antibodies. […] Immunostaining signals were digitalized with a PC-driven LAS-3000 CCD camera (Fujifilm, Tokyo, Japan), using a software specifically designed for image acquisition (Image Reader, Raytest®, Straubenhardt, Germany). Immunoreactive band intensities were quantified using the software AIDA® Image Analyser 3.45 (Raytest®).

MM074 melanoma cell line [5] = assay: Apoptosis determination (annexin V), MM074; type: cell-based, human
MM043 melanoma cell line [6] = assay: Apoptosis determination (annexin V), MM043; type: cell-based, human
[7] = test system: key proteins of MAPK and p53/PI3K/AKT pathways; assay: Western blot analysis, MM074 cells; type: cell-based, human; conditions: MM074, Western blotting
Experimental: as §1

MM043 xenografts = assay: Human melanoma xenografts, MM043; type: in vivo, mice
Experimental: (§2) Mice were injected subcutaneously (right and left flank) with 5×10^6 MM074 (vemurafenib sensitive), MM043 (with intrinsic resistance) or MM074-R cells (with acquired resistance) in 200 μl of 50% Matrigel (from Trevigen, Gaithersburg, Md.) in saline. When tumors reached 200 mm^3, mice were randomized into groups of 8 and daily intraperitoneally injected with vehicle, 45 mg/kg vemurafenib, 50 mg/kg PRIMA-1^Met or vemurafenib plus PRIMA-1^Met. […] Tumor volumes were calculated using the formula (L×W×W)/2 (Ji Z et al., 2013, Clin Cancer Res Off J Am Assoc Cancer Res. 19(16):4383-4391), in which L is the length and W is the width as measured with a vernier calliper.
(§3) The sensitive melanoma cells (MM074) xenografts were used as control. After subcutaneous cell injection, tumor growth was monitored to reach volumes of about 200 mm^3.

[8] = test system: key proteins of MAPK and p53/PI3K/AKT pathways; assay: Western blot analysis, MM074-R cells; type: cell-based, human; conditions: Western blotting, 50 and 75 μM for 24 hours
Experimental: as §1

MM070 melanoma cell line = assay: Cell proliferation, crystal violet assay, MM070; type: cell-based; conditions: Homo sapiens, V600E, read-out: IC50 (μM) vemurafenib
Experimental: (§4) Cells were distained under running tap water and subsequently lysed with 0.2% Triton X-100 for 90 minutes (v/v in water).
(§5) The IC50 and IC10 values represent the inhibitory concentrations producing, respectively, 50% and 10% growth reduction and were calculated from dose response curves using GraphPad Prism software (GraphPad Software, La Jolla, Calif., USA).

MM034 melanoma cell line = assay: Cell proliferation, crystal violet assay, MM034; type: cell-based; conditions: Homo sapiens, V600E, read-out: IC50 (μM) vemurafenib
Experimental: as §4, §5

[9] = test system: MM074-R melanoma cell line; assay: cells; conditions: Homo sapiens, read-out: IC50 (μM) vemurafenib
[10] = test system: ERK and AKT phosphorylation; assay: Western blot, ERK and AKT phosphorylation in panel of vemurafenib-resistant lines; type: cell-based, human
Experimental: Representative Western blots illustrating the evolution of (A) ERK and (B) AKT phosphorylation in melanoma cells exposed to increasing concentrations of vemurafenib (0.1, 1 and 10 μM) for 24 hours. Ratio of phosphorylated protein over total protein were calculated from densitometry evaluation.
Cells were plated in Petri dishes (3×10^6 cells/dish) in culture medium. […] Then, cells were exposed or not to effectors for 30 minutes or 24 hours. Cells were lysed using a detergent cocktail (M-PER Mammalian Extraction Buffer) supplemented with protease inhibitors (Halt Protease Inhibitor Cocktail) and phosphatase inhibitors (Halt Phosphatase Inhibitor Cocktail) (all from Pierce, Rockford, Ill., USA). Protein concentrations were determined by the BCA Protein Assay (Pierce) using bovine serum albumin as the standard. Equal amounts of extracted proteins (35 μg) were subjected to 10 or 12% SDS-PAGE and electrotransferred onto nitrocellulose membranes using iBlot® Dry Blotting System (Invitrogen, Life Technologies, Gent, Belgium). […] Immunostaining signals were digitalized with a PC-driven LAS-3000 CCD camera (Fujifilm, Tokyo, Japan), using a software specifically designed for image acquisition (Image Reader, Raytest®, Straubenhardt, Germany). Immunoreactive band intensities were quantified using the software AIDA® Image Analyser 3.45 (Raytest®).

[11] = test system: panel of V600E/K BRAF melanoma cell lines; assay: Cell proliferation and apoptosis in panel of V600E/K BRAF melanoma cell lines; conditions: Homo sapiens
MM054 melanoma cell line = assay: Cell proliferation, crystal violet assay, MM054; type: cell-based; conditions: Homo sapiens, V600E, read-out: IC50 (μM) vemurafenib
Experimental: as §4, §5
(§6) CI values between 0.9 and 1.1 indicates an additive effect; values between 0.7 and 0.9, a moderate synergism; values lower than 0.7, a strong synergism; and antagonism is represented by CI values higher than 1.1.

MM029 melanoma cell line = assay: Cell proliferation, crystal violet assay, MM029; type: cell-based; conditions: Homo sapiens, V600K, read-out: IC50 (μM) vemurafenib
Experimental: as §4, §5, §6

MM050 melanoma cell line = assay: Cell proliferation, crystal violet assay, MM050; type: cell-based; conditions: Homo sapiens, V600E, read-out: IC50 (μM) vemurafenib
Experimental: as §4, §5

MM133 melanoma cell line = assay: Cell proliferation, crystal violet assay, MM133; type: cell-based; conditions: Homo sapiens, V600K, read-out: IC50 (μM) vemurafenib
Experimental: as §4, §5, §6

MM074 xenografts = assay: Human melanoma xenografts, MM074; type: in vivo, mice
Experimental: as §2, §3

MM032 melanoma cell line = assay: Cell proliferation, crystal violet assay, MM032; type: cell-based; conditions: Homo sapiens, V600E, read-out: IC50 (μM) vemurafenib
Experimental: as §4, §5, §6

melanoma = conditions: ipilimumab only group, 9 of 15 responders; cited from earlier work
[12] = Homo sapiens, read-out: IC50 (μM) vemurafenib

Compound: O=c1cc(N2CCOCC2)oc2c(-c3ccccc3)cccc12 [LY294002]
IC10 (MM074 melanoma cell line [1]; MM074): 5000 nM
IC10 [2]: 5000 nM
IC10 (MM043 melanoma cell line [3]): 5000 nM
CI (combination index) (MM043 melanoma cell line [3]): 0.56

Compound: COc1ccc(-c2cc3c(C)nc(N)nc3n([C@H]3CC[C@H](OCCO)CC3)c2=O)cn1 [PF-04691502]
AKT phosphorylation [4]: inhibited
apoptosis (annexin V-positive cells) (MM074 melanoma cell line [5]; MM074, PI3K inhibitor at IC10 in combination with vemurafenib, 2 days): increased
IC10 (MM074 melanoma cell line [1]; MM074): 100 nM
cell proliferation (MM074 melanoma cell line [1]; MM074, PI3K inhibitor at IC10 in combination with increasing concentrations of vemurafenib): not significantly affected
IC10 [2]: 100 nM
apoptosis (annexin V-positive cells) (MM043 melanoma cell line [6]; MM043, PI3K inhibitor at IC10 in combination with vemurafenib, 2 days): significant increase in apoptosis
IC10 (MM043 melanoma cell line [3]): 100 nM
CI (combination index) (MM043 melanoma cell line [3]): 0.64
AKT phosphorylation [7]: inhibited

Compound: COCC1(CO)C(=O)C2CCN1CC2 (centres unmarked) [PRIMA-1^Met, 2-hydroxymethyl-2-methoxymethylazabicyclo[2.2.2]octan-3-one]
AKT phosphorylation [4]: inhibited AKT phosphorylation; also recorded: inhibition of p110α expression and AKT phosphorylation
PTEN expression [4]: stimulated PTEN expression; also recorded: increase in PTEN levels
p53 expression / p53 pathway [4]: restored p53 expression; also recorded: activation of the p53 pathway
p110α expression [4]: inhibition of p110α expression and AKT phosphorylation
IC10 [2]: 40000 nM
mean tumor volume (MM043 xenografts; after 20 days of treatment): 1080 mm^3
AKT phosphorylation [8]: decrease of p110α expression and AKT phosphorylation
p21 and PTEN levels [8]: upregulation of p21 and PTEN levels
p53 expression and phosphorylation [8]: dose-dependent increase of p53 expression and phosphorylation
p110α expression [8]: decrease of p110α expression and AKT phosphorylation
AKT phosphorylation [7]: inhibition of p110α expression and AKT phosphorylation
PTEN expression [7]: increase in PTEN levels
p110α expression [7]: inhibition of p110α expression and AKT phosphorylation

IC50 (MM070 melanoma cell line): 0.05 µM
IC50 (MM034 melanoma cell line): 0.1 µM
IC50 [9]: 20 µM
IC50 (MM074 melanoma cell line [1]; [12]): 0.1 µM
IC50 ([11]; read-out: IC50, cell lines found to be resistant): > 10000 nM
IC50 ([11]; read-out: IC50, cell lines found to be sensitive): ≤ 2000 nM
IC50 (MM054 melanoma cell line): 40 µM
IC50 (MM029 melanoma cell line): 30 µM
IC50 (MM043 melanoma cell line [3]; [12]): 20 µM
IC50 (MM050 melanoma cell line): 0.1 µM
IC50 (MM133 melanoma cell line): 2 µM
IC50 (MM032 melanoma cell line): 2 µM
Compound: CCCS(=O)(=O)Nc1ccc(F)c(C(=O)c2c[nH]c3ncc(-c4ccc(Cl)cc4)cc23)c1F [vemurafenib, N-(3-{[5-(4-chlorophenyl)-1H-pyrrolo[2,3-b]pyridin-3-yl]carbonyl}-2,4-difluorophenyl)propane-1-sulfonamide]
pERK ([10]; all resistant lines, 24 hours): similarly inhibited in a concentration-dependent manner
pAKT ([10]; resistant lines MM032, MM043 and MM133, 24 hours): unaffected in three out of five resistant lines
AKT phosphorylation [4]: neither AKT phosphorylation nor PTEN expression were affected
PTEN expression [4]: neither AKT phosphorylation nor PTEN expression were affected
ERK phosphorylation (pERK) ([4]; 24 hours): similarly inhibited
apoptosis (annexin V-positive cells) (MM074 melanoma cell line [5]; MM074, 2 days): induces apoptosis
tumor growth (MM043 xenografts; 45 mg/kg vemurafenib and/or 50 mg/kg PRIMA-1^Met daily IP): did not significantly affected tumor growth
mean tumor volume (MM043 xenografts; after 28 days of treatment): ~1130 mm^3
apoptosis (annexin V-positive cells) (MM043 melanoma cell line [6]; MM043, 2 days): no apoptosis is detected
average tumor volume (MM074 xenografts; 28 days, 45 mg/kg daily intraperitoneally): ~190 mm3
tumor growth (MM074 xenografts; as of day 4 after starting treatment): inhibited tumor growth
AKT phosphorylation [7]: strongly inhibited
PTEN expression [7]: concentration-dependent increase of PTEN expression
ERK phosphorylation (pERK) ([7]; 24 hours): similarly inhibited

Compound: ipilimumab: an antibody raised against CTLA-4 molecule on T-cells
responders who maintained an objective response for at least 2 years (melanoma): 60%
